According to US9937153B2, “Oral pharmaceutical formulation of omarigliptin” (Merck Sharp & Dohme Corp., priority 2013, dated 2018):

How the values were obtained:
[1] = Comparative salt stability of pharmaceutical formulations after 1 week; type: physicochemical; conditions: formulation as in Example 3
Method: Samples were made with 1% Citric Acid or Na2CO3 by first coating a mortar with mannitol. Omarigliptin was then triturated using the mortar and pestle with 0.1000 g mannitol then with 0.1000 g mannitol & 0.1000 g citric acid or Na2CO3 and then with equal amounts mannitol. The triturate was added to the remaining ingredients and blended initially with mortar and pestle and then transferred into a glass bottle and blended with a blender at medium speed for 15 mins. Magnesium stearate was passed through a 250 micron screen and the required quantity was dispensed and added to the powders in the bottle. The mixture was blended for 1 minute at medium speed. Tablets were compressed using a press having ¼″ normal concave punches at 100 mg unit weight:
Fumarate, phosphate and hydrochloride salts of omarigliptin were made and used in the manufacture of pharmaceutical formulations as described in Example 3. The pharmaceutical formulations containing the fumerate, phosphate and hydrochloride salts of omarigliptin as well as pharmaceutical formulations containing the free base were tested under various conditions for stability.

[2] = Formulation work on chemical stability of omarigliptin; type: physicochemical
Source text: One concern with developing an oral pharmaceutical formulation of omarigliptin is the chemical stability of the compound. […] Also omarigliptin stability is critically sensitive to drug loading with lower drug loadings becoming increasingly unstable in any formulation drug product. […] This degradation process with respect to free amines is described in Robertson et al., Maillard's Reaction and its Impliations for Amine Drugs in the Pharmaceutical Industry, Digital Edition of American Pharmaceutical Review, Volume 15, Issue 3, April 2012.

| Compound | % Area ([1]; 5° C./50% RH closed) | % LC ([1]; 5° C./50% RH closed) | % Area ([1]; 50° C./75% RH/open) | % LC ([1]; 50° C./75% RH/open) | Total Degs. (Area %) ([1]; 50° C./75% RH/open) | % Area ([1]; 50° C./closed) | % LC ([1]; 50° C./closed) | Total Degs. (Area %) ([1]; 50° C./closed) | sensitivity to oxidation [2] | sensitivity to acid and base catalyzed hydrolysis ([2]; early formulation work) | sensitivity to Maillard degradation (browning) ([2]; with excipients or other impurities that contain reducible sugar impurities) |
| --- | --- | --- | --- | --- | --- | --- | --- | --- | --- | --- | --- |
| CS(=O)(=O)n1cc2c(n1)CN([C@H]1CO[C@H](c3cc(F)ccc3F)[C@@H](N)C1)C2 [Free Base I, (2R,3S,5R)-2-(2,5-Difluorophenyl)-5-[2-(methylsulfonyl)-2,6-dihydropyrrolo[3,4-c]pyrazol-5(4H)-yl]tetrahydro-2H-pyran-3-amine] | 98.8% | 88.5% | 97.1% | 82.0% | 1.7 Area % | 97.9% | 85.9% | 0.9 Area % | – | – | – |
| CS(=O)(=O)n1cc2c(n1)CN([C@H]1CO[C@H](c3cc(F)ccc3F)[C@@H](N)C1)C2.O=C(O)/C=C/C(=O)O [Fumerate] | 95.9% | 79.6% | 93.8% | 69.5% | 2.0 Area % | 94.3% | 75.9% | 1.6 Area % | – | – | – |
| CS(=O)(=O)n1cc2c(n1)CN(C1COC(c3cc(F)ccc3F)C(N)C1)C2.Cl (centres unmarked) [HCl] | 98.69% | 75.5% | 95.3% | 62.5% | 3.6 Area % | 97.6% | 71.8% | 1.3 Area % | – | – | – |
| CS(=O)(=O)n1cc2c(n1)CN([C@H]1CO[C@H](c3cc(F)ccc3F)[C@@H](N)C1)C2 [omarigliptin, (2R,3S,5R)-2-(2,5-Difluorophenyl)-5-[2-(methylsulfonyl)-2,6-dihydropyrrolo[3,4-c]pyrazol-5(4H)-yl]tetrahydro-2H-pyran-3-amine] | – | – | – | – | – | – | – | – | sensitive to oxidation | sensitive to acid and base catalyzed hydrolysis | sensitive to Maillard degradation |
| Phosphate | 96.8% | 76.5% | 92.0% | 54.4% | 4.8 Area % | 94.0% | 70.8% | 2.9 Area % | – | – | – |
